Laboratory results published in patent publication US11602147B2, “Nematode control” (University of Idaho, priority 2017, dated 2023).

What was measured:
[1] = pH stability of 4-hydroxybenzyl isothiocyanate in buffered aqueous solutions; type: physicochemical
Experimental: Partially purified 4-hydroxybenzyl isothiocyanate was prepared by suspending 500 grams of S. alba seed meal in 2 liters of deionized water and extracting the mixture with 500 milliliters of ethyl acetate for 24 hours. The ethyl acetate extract was separated by decanting the top organic layer after centrifugation, dried with 100 g of anhydrous sodium sulfate overnight, and concentrated under vacuum at laboratory temperature. The crude 4-hydroxybenzyl isothiocyanate extract was further purified by preparative column chromatography on silica gel (500 grams). […] Content of 4-hydroxybenzyl isothiocyanate within the fractions was verified by GC-MS using instrumentation and conditions as described previously. Fractions containing 4-hydroxybenzyl isothiocyanate were combined and concentrated under vacuum at laboratory temperature producing a yellowish, viscous fluid displaying only 4-hydroxybenzyl isothiocyanate and pentane/methylene chloride solvent peaks in the GC chromatogram. No further concentration of 4-hydroxybenzyl isothiocyanate was achieved using vacuum distillation because of its instability.
Actual pH values of the buffers of 3.03, 3.52, 4.02, 4.49, 5.00, 5.46, 5.91, and 6.52 were verified using an Orion model 420A pH meter (Orion Research, Boston). […]

Globodera pallida eggs = experiment: Globodera pallida egg hatching assay after 2-week exposure of encysted eggs; type: in vivo
Experimental: An initial experiment was conducted to determine possible effects of S. alba seed meal on hatch of Globodera pallida eggs. Measuring the percentage egg hatch is a viability indicator and provides an indication of the potential impact from a treatment. In this experiment, Globodera pallida encysted eggs were exposed to S. alba seed meal for 2 weeks in small containers containing a sand:soil mix. The sand:soil mix without seed meal was used as the non-treated control. […] The experiment had two treatments: 1) a non-treated bare soil control; or 2) S. alba seed meal. Each treatment included 5 replicates. Eggs from each of these treatments were exposed to either PRD or SE for 2 weeks, at which time hatched infectious 2nd stage Globodera pallida juveniles (J2) were counted. The objective of this experiment was to determine if 4-hydroxybenzyl alcohol (HBA), the product of enzymatic hydrolysis of the glucosinolate sinalbin contained in S. alba seed meal, could be responsible for the observed enhanced hatch. In an experiment similar to Example 1, encysted eggs were exposed to either HBA, or S. alba seed (yellow mustard) meal. The non-treated eggs were placed in bare soil mix only. After 2 weeks, exposed eggs were placed in hatching assays in either PRD or in soil extract, and hatched J2 were counted. In this experiment, the impact of different application rates of HBA on percent Globodera pallida hatch was investigated (FIG. 13). Again, hatch of the non-treated control was higher in PRD than in soil extract. […] An increase in hatch of approximately 60% occurred with a 1 μmol/ml pre-treatment with HBA prior to PRD exposure.

wheat = details: effect no longer observed at 69 days post application; cited from earlier work
cotton = details: solutions sprayed directly on vegetative growth; cited from earlier work
vegetative cover / weeds = details: cited from earlier work

SMILES: Oc1ccc(CN=C=S)cc1 [4-hydroxybenzyl isothiocyanate]
- half-life at 0.1 % v/v (partially purified extract in buffer) ([1]; 0.1 M sodium citrate/citric acid buffer (aqueous), pH 7.0 (overview text)): < 5 min
- stability in aqueous media ([1]; aqueous media): unstable

SMILES: OCc1ccc(O)cc1 [HBA, 4-hydroxybenzyl alcohol]
- increase in hatch (Globodera pallida eggs; 1 μmol/ml pre-treatment with HBA prior to PRD exposure): approximately 60%
- hatch enhancement, comparison of application rates (Globodera pallida eggs; 1 μmol/ml versus 2, 4, 8 μmol/ml): enhanced hatch of Globodera pallida more effectively than higher rates tested
- increase in Globodera pallida egg hatch compared to non-treated control (Globodera pallida eggs; 2-week exposure in soil mix, then hatched in potato root diffusate (PRD)): 50%

SMILES: N#CS [SCN^−, ionic thiocyanate]
- application rate causing inhibition of wheat germination (wheat): 342 kilograms SCN^−/ha
- rate at which cotton defoliation was possible (cotton): 8.6 kilograms SCN^−/ha
- rate necessary for complete plant kill (vegetative cover / weeds; for 4 months): 1,366 kg SCN^−/ha
- rate removing a large percentage of the weeds (vegetative cover / weeds; in vivo): 137 kilograms SCN^−/ha
